Results from US20260001928A1 (CORTERIA PHARMACEUTICALS, priority 2022, published 2026).
*1 amine or outer side, *2 acyl side, *3 side chain or, on linkers, in order; H or OH if unused. Where a SMILES comes first, the peptide text is derived from it. Side-chain parts run from the residue outwards. [ ]: non-standard residue; d: D form. The star is where a group is joined. C16 diacid = O=C(O)CCCCCCCCCCCCCCC(=O)*; γGlu = O=C(O)[C@H](CCC(=O)[*:2])N[*:1]; NMeI = CC[C@H](C)[C@H](NC)C(=O)O; Api = NC1(C(=O)O)CCNCC1; Aib = CC(C)(N)C(=O)O

Assays:
human CRF2a receptor = molecular target: T1, human CRF2a receptor (Homo sapiens, UniProt Q13324); test: Activity at human CRF2a receptor, cAMP functional assay in TeloHEAC cells; format: cell-based; details: TeloHEAC cells stably expressing human CRF2a receptor, relative to urocortin 2 (100 nM = 100%)
T1 construct: expressed in transfected cells; host or cells: TeloHEAC cells
T1 sequence (Q13324 1-411): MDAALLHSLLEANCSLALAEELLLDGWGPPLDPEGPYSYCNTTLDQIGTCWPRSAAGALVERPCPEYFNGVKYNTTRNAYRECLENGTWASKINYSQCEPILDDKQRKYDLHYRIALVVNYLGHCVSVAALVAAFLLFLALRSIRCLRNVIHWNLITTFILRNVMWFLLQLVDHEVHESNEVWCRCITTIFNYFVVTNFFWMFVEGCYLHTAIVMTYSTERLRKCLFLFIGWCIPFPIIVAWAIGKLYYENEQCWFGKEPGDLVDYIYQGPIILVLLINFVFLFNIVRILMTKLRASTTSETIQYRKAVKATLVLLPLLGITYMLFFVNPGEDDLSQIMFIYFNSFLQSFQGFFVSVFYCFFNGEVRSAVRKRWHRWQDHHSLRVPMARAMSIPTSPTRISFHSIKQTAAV
How it was run: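 cAMP accumulation was measured by HTRF 665/620 nm ratio after 30 min at 37° C compound exposure (16 twofold dilutions) of CRF2a-expressing TeloHEAC cells, 10000/well, in HEPES-buffered HBSS plus IBMX. Activity was normalised to urocortin 2 at 100 nM (100%), and EC50 was the concentration giving half-maximal activation.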

CFR1R receptor = molecular target: T2, CFR1R receptor (Homo sapiens, UniProt P34998); test: Activity at anti-target CFR1R receptor, cAMP assay in CRF1R-overexpression CHO-K1 cells; format: cell-based; details: 100% = Sauvagine at 100 nM; for EC50: cAMP
T2 construct: host or cells: CHO-K1 (clone 2)
T2 sequence (P34998 24-415): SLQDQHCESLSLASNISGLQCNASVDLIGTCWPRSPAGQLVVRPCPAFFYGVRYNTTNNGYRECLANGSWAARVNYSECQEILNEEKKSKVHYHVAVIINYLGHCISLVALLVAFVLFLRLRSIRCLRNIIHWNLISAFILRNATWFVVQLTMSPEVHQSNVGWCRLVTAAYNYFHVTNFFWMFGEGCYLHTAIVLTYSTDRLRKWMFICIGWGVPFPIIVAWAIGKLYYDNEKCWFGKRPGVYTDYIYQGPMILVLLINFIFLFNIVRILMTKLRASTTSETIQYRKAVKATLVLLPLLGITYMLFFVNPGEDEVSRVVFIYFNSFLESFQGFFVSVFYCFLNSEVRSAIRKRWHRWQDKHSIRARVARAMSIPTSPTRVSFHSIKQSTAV
How it was run: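 Run as for the TeloHAEC line, except the full-activation control well received Sauvagine (100 nM) and final density was 4000 cells/well. Cells from clone 2 came from frozen aliquots of near-confluent cultures.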

Row | EC50 (human CRF2a receptor) [nM] | Emax (% I) (CFR1R receptor) | EC50 (CFR1R receptor) [nM] | Structure (SMILES)
1 | 0.51 | 25 | > 250 | CC[C@H](C)[C@H](NC(C)=O)C(=O)N[C@H](C(=O)N[C@@H](CC(C)C)C(=O)N[C@@H](CO)C(=O)N[C@@H](CC(C)C)C(=O)N[C@@H](CC(=O)O)C(=O)N[C@@H](C(=O)N1CCC[C@H]1C(=O)N[C@H](C(=O)N[C@@H](CCCCN)C(=O)N[C@@H](CC(C)C)C(=O)N[C@@H](CCCCNC(=O)CC[C@H](NC(=O)CCCCCCCCCCCCCCC(=O)O)C(=O)O)C(=O)N[C@@H](CCCCN)C(=O)N[C@H](C(=O)N[C@@H](CC(C)C)C(=O)N[C@@H](CC(C)C)C(=O)N[C@@H](CCC(=O)O)C(=O)N[C@@H](CCC(N)=O)C(=O)N[C@@H](CCC(=O)O)C(=O)N[C@@H](CCCCN)C(=O)N[C@@H](CCC(N)=O)C(=O)N[C@@H](CCCCN)C(=O)N[C@@H](C)C(=O)N[C@@H](CCC(N)=O)C(=O)N[C@@H](CCCNC(=N)N)C(=O)N[C@@H](CCC(=O)O)C(=O)N[C@@H](CCC(N)=O)C(=O)N[C@@H](C)C(=O)N[C@@H](CCC(=O)O)C(=O)N[C@H](C(=O)N[C@@H](CC(N)=O)C(=O)NC1(C(=O)N[C@@H](CCC(N)=O)C(=O)N[C@H](C(=O)N[C@@H](CC(C)C)C(=O)N[C@@H](C)C(=O)N[C@@H](CCC(N)=O)C(=O)N[C@H](C(N)=O)C(C)C)[C@@H](C)CC)CCNCC1)[C@@H](C)O)[C@@H](C)CC)[C@@H](C)CC)C(C)C)C(C)C [compound 152] (Ac-IVLSLD[dV]PIKLK([γGlu-C16 diacid])KILLEQEKQKAQREQAETN[Api]QILAQV-NH2)
2 | 0.41 | 22 | > 250 | CC[C@H](C)[C@H](NC(C)=O)C(=O)N[C@H](C(=O)N[C@@H](CC(C)C)C(=O)N[C@@H](CO)C(=O)N[C@@H](CC(C)C)C(=O)N[C@@H](CC(=O)O)C(=O)N[C@@H](C(=O)N1CCC[C@H]1C(=O)N[C@H](C(=O)N[C@@H](CCCCN)C(=O)N[C@@H](CC(C)C)C(=O)N[C@@H](CCCCNC(=O)CC[C@H](NC(=O)CCCCCCCCCCCCCCC(=O)O)C(=O)O)C(=O)N[C@@H](CCCCN)C(=O)N[C@H](C(=O)N[C@@H](CC(C)C)C(=O)N[C@@H](CC(C)C)C(=O)N[C@@H](CCC(=O)O)C(=O)N[C@@H](CCC(N)=O)C(=O)N[C@@H](CCC(=O)O)C(=O)N[C@@H](CCCCN)C(=O)N[C@@H](CCC(N)=O)C(=O)N[C@@H](CCCCN)C(=O)NC(C)(C)C(=O)N[C@@H](CCC(N)=O)C(=O)N[C@@H](CCCNC(=N)N)C(=O)N[C@@H](CCC(=O)O)C(=O)N[C@@H](CCC(N)=O)C(=O)N[C@@H](C)C(=O)N[C@@H](CCC(=O)O)C(=O)N[C@H](C(=O)N[C@@H](CC(N)=O)C(=O)NC1(C(=O)N[C@@H](CCC(N)=O)C(=O)N[C@H](C(=O)N[C@@H](CC(C)C)C(=O)N[C@@H](C)C(=O)N[C@@H](CCC(N)=O)C(=O)N[C@H](C(N)=O)C(C)C)[C@@H](C)CC)CCNCC1)[C@@H](C)O)[C@@H](C)CC)[C@@H](C)CC)C(C)C)C(C)C [compound 153] (Ac-IVLSLD[dV]PIKLK([γGlu-C16 diacid])KILLEQEKQK[Aib]QREQAETN[Api]QILAQV-NH2)
3 | 0.52 | 24 | > 250 | CC[C@H](C)[C@H](NC)C(=O)N[C@H](C(=O)N[C@@H](CC(C)C)C(=O)N[C@@H](CO)C(=O)N[C@@H](CC(C)C)C(=O)N[C@@H](CC(=O)O)C(=O)N[C@@H](C(=O)N1CCC[C@H]1C(=O)N[C@H](C(=O)N[C@@H](CCCCN)C(=O)N[C@@H](CC(C)C)C(=O)N[C@@H](CCCCNC(=O)CC[C@H](NC(=O)CCCCCCCCCCCCCCC(=O)O)C(=O)O)C(=O)N[C@@H](CCCCN)C(=O)N[C@H](C(=O)N[C@@H](CC(C)C)C(=O)N[C@@H](CC(C)C)C(=O)N[C@@H](CCC(=O)O)C(=O)N[C@@H](CCC(N)=O)C(=O)N[C@@H](CCC(=O)O)C(=O)N[C@@H](CCCCN)C(=O)N[C@@H](CCC(N)=O)C(=O)N[C@@H](CCCCN)C(=O)N[C@@H](C)C(=O)N[C@@H](CCC(N)=O)C(=O)N[C@@H](CCCNC(=N)N)C(=O)N[C@@H](CCC(=O)O)C(=O)N[C@@H](CCC(N)=O)C(=O)N[C@@H](C)C(=O)N[C@@H](CCC(=O)O)C(=O)N[C@H](C(=O)N[C@@H](CC(N)=O)C(=O)NC1(C(=O)N[C@@H](CCC(N)=O)C(=O)N[C@H](C(=O)N[C@@H](CC(C)C)C(=O)N[C@@H](C)C(=O)N[C@@H](CCC(N)=O)C(=O)N[C@H](C(N)=O)C(C)C)[C@@H](C)CC)CCNCC1)[C@@H](C)O)[C@@H](C)CC)[C@@H](C)CC)C(C)C)C(C)C [compound 154] (H-[NMeI]VLSLD[dV]PIKLK([γGlu-C16 diacid])KILLEQEKQKAQREQAETN[Api]QILAQV-NH2)

The remaining lines, values behind:

Row | Structure (SMILES) | EC50 (human CRF2a receptor) [nM] | Emax (% I) (CFR1R receptor) | EC50 (CFR1R receptor) [nM]
4 | CC[C@H](C)[C@H](N)C(=O)N[C@H](C(=O)N[C@@H](CC(C)C)C(=O)N[C@@H](CO)C(=O)N[C@@H](CC(C)C)C(=O)N[C@@H](CC(=O)O)C(=O)N[C@@H](C(=O)N1CCC[C@H]1C(=O)N[C@H](C(=O)N[C@@H](CCCCN)C(=O)N[C@@H](CC(C)C)C(=O)N[C@@H](CCCCNC(=O)CC[C@H](NC(=O)CCCCCCCCCCCCCCC(=O)O)C(=O)O)C(=O)N[C@@H](CCC(N)=O)C(=O)N[C@H](C(=O)N[C@@H](CC(C)C)C(=O)N[C@@H](CC(C)C)C(=O)N[C@@H](CCCCN)C(=O)N[C@@H](CCC(N)=O)C(=O)N[C@@H](CCC(=O)O)C(=O)N[C@@H](CCCNC(=N)N)C(=O)N[C@@H](CCC(N)=O)C(=O)N[C@@H](CCCCN)C(=O)N[C@@H](CCCCN)C(=O)N[C@@H](CCC(N)=O)C(=O)N[C@@H](CCCNC(=N)N)C(=O)N[C@@H](CCC(=O)O)C(=O)N[C@@H](CCC(N)=O)C(=O)N[C@@H](C)C(=O)N[C@@H](CCC(=O)O)C(=O)N[C@@H](CCCCN)C(=O)N[C@@H](CC(N)=O)C(=O)N[C@@H](CCCCN)C(=O)N[C@@H](CCC(N)=O)C(=O)N[C@H](C(=O)N[C@@H](CC(C)C)C(=O)N[C@@H](CCC(=O)O)C(=O)N[C@@H](CCC(N)=O)C(=O)N[C@H](C(N)=O)C(C)C)[C@@H](C)CC)[C@@H](C)CC)[C@@H](C)CC)C(C)C)C(C)C [compound 151] (H-IVLSLD[dV]PIKLK([γGlu-C16 diacid])QILLKQERQKKQREQAEKNKQILEQV-NH2) | 0.12 | 53 | 
5 | CC[C@H](C)[C@H](NC)C(=O)N[C@H](C(=O)N[C@@H](CC(C)C)C(=O)N[C@@H](CO)C(=O)N[C@@H](CC(C)C)C(=O)N[C@@H](CC(=O)O)C(=O)N[C@@H](C(=O)N1CCC[C@H]1C(=O)N[C@H](C(=O)N[C@@H](CCCCN)C(=O)N[C@@H](CC(C)C)C(=O)N[C@@H](CCCCNC(=O)CC[C@H](NC(=O)CCCCCCCCCCCCCCC(=O)O)C(=O)O)C(=O)N[C@@H](CCCCN)C(=O)N[C@H](C(=O)N[C@@H](CC(C)C)C(=O)N[C@@H](CC(C)C)C(=O)N[C@@H](CCC(=O)O)C(=O)N[C@@H](CCC(N)=O)C(=O)N[C@@H](CCC(=O)O)C(=O)N[C@@H](CCCCN)C(=O)N[C@@H](CCC(N)=O)C(=O)N[C@@H](CCCCN)C(=O)NC(C)(C)C(=O)N[C@@H](CCC(N)=O)C(=O)N[C@@H](CCCNC(=N)N)C(=O)N[C@@H](CCC(=O)O)C(=O)N[C@@H](CCC(N)=O)C(=O)N[C@@H](C)C(=O)N[C@@H](CCC(=O)O)C(=O)N[C@H](C(=O)N[C@@H](CC(N)=O)C(=O)NC1(C(=O)N[C@@H](CCC(N)=O)C(=O)N[C@H](C(=O)N[C@@H](CC(C)C)C(=O)N[C@@H](C)C(=O)N[C@@H](CCC(N)=O)C(=O)N[C@H](C(N)=O)C(C)C)[C@@H](C)CC)CCNCC1)[C@@H](C)O)[C@@H](C)CC)[C@@H](C)CC)C(C)C)C(C)C [compound 155] (H-[NMeI]VLSLD[dV]PIKLK([γGlu-C16 diacid])KILLEQEKQK[Aib]QREQAETN[Api]QILAQV-NH2) | 0.51 | 26 | > 250
